# Tested on: osteosarcoma cells
# Assay: Cell viability after 1 µM obatoclax or navitoclax (CellTiter-Glo)
# Format: cell-based, human
# Settings: 72 hours, 11 types of osteosarcoma cells, Fig. 1B
# Procedure: Among these five compounds, obatoclax, a pan-BH3 mimetic, was further investigated. Specifically, the osteosarcoma cells (the above described 11 types of osteosarcoma cells) were seeded in triplicate at a density of 2000 cells/well on 96-well plates (Greiner) or type I collagen-coated plates (IWAKI) and cultured for at least 24 hours. The osteosarcoma cells (i.e., the above described 11 types) were then treated with 1 µ(micro)M obatoclax for 72 hours, after which cell viability was measured using the CellTiter-Glo assay reagent.
compound,measurement,value
CC1(C)CCC(c2ccc(Cl)cc2)=C(CN2CCN(c3ccc(C(=O)NS(=O)(=O)c4ccc(N[C@H](CCN5CCOCC5)CSc5ccccc5)c(S(=O)(=O)C(F)(F)F)c4)cc3)CC2)C1 [navitoclax],cell viability,little effect on osteosarcoma cell proliferation

# — patent EP4721758A1, “NOVEL MEDICINE FOR TREATING OSTEOSARCOMA” (Japanese Foundation For Cancer Research, priority 2023, dated 2024)
